8 compounds from PubChem BioAssay (NCI) can be followed below.

Test systems include 786-0 renal; CAKI-1 renal; DU-145 prostate; HCT-116 colon; K-562 leukemia; KM12 colon; MOLT-4 leukemia; NCI/ADR-RES ovarian; OVCAR-4 ovarian; OVCAR-5 ovarian; RPMI-8226 leukemia; RXF 393 renal; SF-268 CNS; SF-295 CNS; SK-OV-3 ovarian; UACC-257 melanoma; UO-31 renal; CCRF-CEM leukemia; HS 578T breast.
Holding throughout (assay): DTP human tumour cell line panel, 48 h

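Method: 48-hour compound exposure of cells in 96-well plates, five concentrations, linear interpolation of endpoints. TGI is the concentration that stops growth completely.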

Take `N#Cc1nc(C(CO)N(Cc2ccccc2)C(=O)O)oc1N` (stereo unspecified): the TGI in the experiment with 786-0 renal, in the experiment with CAKI-1 renal, with DU-145 prostate, with HCT-116 colon, in the experiment on K-562 leukemia and in the experiment on KM12 colon was more than 100 µM in each case. The TGI with MOLT-4 leukemia, in the experiment with NCI/ADR-RES ovarian, with OVCAR-4 ovarian, in the experiment on OVCAR-5 ovarian, in the experiment on RPMI-8226 leukemia and in the experiment with RXF 393 renal was more than 100 µM throughout. Moreover, the TGI in the experiment with SF-268 CNS, in the experiment with SF-295 CNS, in the experiment with SK-OV-3 ovarian, in the experiment with UACC-257 melanoma and with UO-31 renal was more than 100 µM throughout.
For `CC(C)(C)OC(=O)C1CC[C@@H](CC(=O)Oc2ccc([N+](=O)[O-])cc2)N1` (stereo partly specified), the TGI in the experiment on 786-0 renal, with CAKI-1 renal, with CCRF-CEM leukemia, with DU-145 prostate, with HCT-116 colon and with KM12 colon was more than 100 µM in each case. The TGI in the experiment on MOLT-4 leukemia, with NCI/ADR-RES ovarian, in the experiment with OVCAR-4 ovarian, in the experiment on OVCAR-5 ovarian, in the experiment with RPMI-8226 leukemia and in the experiment on RXF 393 renal was more than 100 µM in each case. The TGI in the experiment with SF-295 CNS, in the experiment with SK-OV-3 ovarian, with UACC-257 melanoma and in the experiment on UO-31 renal was more than 100 µM in each case.
On to `CN(Cc1ccccc1)C(=NC#N)N(C)Cc1ccccc1`, for which the TGI with 786-0 renal, with CAKI-1 renal, in the experiment on HCT-116 colon, in the experiment on KM12 colon, with OVCAR-4 ovarian and in the experiment on SF-268 CNS was more than 100 µM each time. Moreover, the TGI with SF-295 CNS, with SK-OV-3 ovarian, in the experiment on UACC-257 melanoma and in the experiment on UO-31 renal was more than 100 µM throughout.
As for `Cc1ccc(-c2nc(-c3cnccn3)n(C3OC(CO)C(O)C(O)C3O)n2)cc1` (stereo unspecified), the TGI in the experiment on 786-0 renal, in the experiment on CCRF-CEM leukemia, with DU-145 prostate, with HCT-116 colon, with K-562 leukemia and with KM12 colon was more than 100 µM throughout. Also, the TGI in the experiment on MOLT-4 leukemia, in the experiment with NCI/ADR-RES ovarian, in the experiment with OVCAR-4 ovarian, in the experiment with OVCAR-5 ovarian, in the experiment with RPMI-8226 leukemia and with RXF 393 renal was more than 100 µM throughout. In addition, the TGI in the experiment with SF-268 CNS, in the experiment on SF-295 CNS, in the experiment with UACC-257 melanoma and with UO-31 renal was more than 100 µM throughout.
In the case of `O=c1[nH]cnc2c1CCCN2`, the TGI in the experiment on 786-0 renal, with CAKI-1 renal, in the experiment on CCRF-CEM leukemia, in the experiment on HCT-116 colon, in the experiment with K-562 leukemia and in the experiment with KM12 colon was more than 100 µM throughout. The TGI with MOLT-4 leukemia, with OVCAR-5 ovarian, with RPMI-8226 leukemia, with RXF 393 renal, with SF-268 CNS and in the experiment with SF-295 CNS was more than 100 µM in each case. The TGI with SK-OV-3 ovarian, with UACC-257 melanoma and in the experiment with UO-31 renal was more than 100 µM throughout.
Take `CC(C)=CCN1c2ccc(Cl)cc2NC(=O)CC1C` (stereo unspecified): the TGI – broadly, the concentration at which net growth stops – in the experiment with 786-0 renal was 34.8 µM; with CAKI-1 renal it was 43.8 µM; in the experiment with CCRF-CEM leukemia, more than 100 µM; in the experiment with DU-145 prostate it was more than 100 µM; in the experiment with HCT-116 colon, 38 µM; in the experiment with HS 578T breast it was 72.1 µM. The TGI was more than 100 µM with K-562 leukemia; 68.6 µM in the experiment with KM12 colon; more than 100 µM with MOLT-4 leukemia; 87.9 µM in the experiment on OVCAR-4 ovarian; more than 100 µM with OVCAR-5 ovarian; 50.1 µM in the experiment with RPMI-8226 leukemia. The TGI in the experiment on RXF 393 renal is 76 µM; with SF-268 CNS, more than 100 µM; in the experiment with SF-295 CNS it was more than 100 µM; with SK-OV-3 ovarian it was more than 100 µM; in the experiment with UACC-257 melanoma, 47.3 µM; with UO-31 renal, more than 100 µM.
Turning to `CNc1nnc(CNc2ccc(-c3nnc(NC)n3N)cc2)n1N`, the TGI with 786-0 renal, with CAKI-1 renal, with CCRF-CEM leukemia, in the experiment with DU-145 prostate, in the experiment with HCT-116 colon and in the experiment on K-562 leukemia was more than 100 µM throughout. Also, the TGI in the experiment on KM12 colon, with MOLT-4 leukemia, in the experiment on NCI/ADR-RES ovarian, with OVCAR-4 ovarian, with OVCAR-5 ovarian and in the experiment on RXF 393 renal was more than 100 µM throughout. Moreover, the TGI in the experiment with SF-268 CNS, in the experiment on SF-295 CNS, with SK-OV-3 ovarian, with UACC-257 melanoma and with UO-31 renal was more than 100 µM in each case.
Consider `Cc1ccc(/C=C2\Cc3cccc(C)c3C2=O)c(C(=O)O)c1`, for which the TGI is more than 100 µM with 786-0 renal; 48.8 µM in the experiment on CAKI-1 renal; more than 100 µM in the experiment with CCRF-CEM leukemia; more than 100 µM with DU-145 prostate; more than 100 µM with HCT-116 colon; more than 100 µM with HS 578T breast. For the same compound, the TGI with K-562 leukemia is more than 100 µM; with KM12 colon it was more than 100 µM; in the experiment on MOLT-4 leukemia, more than 100 µM; in the experiment with OVCAR-4 ovarian, 52.9 µM; in the experiment with OVCAR-5 ovarian it was more than 100 µM; in the experiment on RPMI-8226 leukemia, more than 100 µM. The TGI is more than 100 µM in the experiment on RXF 393 renal; more than 100 µM in the experiment with SF-268 CNS; more than 100 µM with SF-295 CNS; more than 100 µM in the experiment with UACC-257 melanoma; 31.4 µM in the experiment with UO-31 renal.
